Data taken from ChEMBL document CHEMBL6153083, “Synthesis, Structural Modification, and Antismall Cell Lung Cancer Activity of 3-Arylisoquinolines with Dual Inhibitory Activity on Topoisomerase I and II” (J Med Chem, 2025).

Assays:
[1] = Antiproliferative activity against human NCI-H196 cells incubated for 72 hrs; format: functional, cell-based; details: NCI-H196, 72 h
NCI-H446 = test: Antiproliferative activity against human NCI-H446 cells incubated for 72 hrs; format: functional, cell-based; details: NCI-H446, 72 h
NCI-H146 = test: Antiproliferative activity against human NCI-H146 cells incubated for 72 hrs; format: functional, cell-based; details: NCI-H146, 72 h
NCI-H209 = test: Antiproliferative activity against human NCI-H209 cells incubated for 72 hrs; format: functional, cell-based; details: NCI-H209, 72 h
SHP77 = test: Antiproliferative activity against human SHP77 cells incubated for 72 hrs; format: functional, cell-based; details: SHP77, 72 h
[2] = Antiproliferative activity against human BEAS-2B cells incubated for 72 hrs; format: toxicity, cell-based
[3] = Antiproliferative activity against human L02 cells incubated for 72 hrs; format: toxicity, cell-based
NCI-H82 = test: Antiproliferative activity against human NCI-H82 cells incubated for 72 hrs; format: functional, cell-based; details: NCI-H82, 72 h
NCI-H1048 = test: Antiproliferative activity against human NCI-H1048 cells incubated for 72 hrs; format: functional, cell-based; details: NCI-H1048, 72 h

| IC50 (NCI-H446) | IC50 (NCI-H146) | IC50 (NCI-H209) | IC50 (NCI-H82) | IC50 (NCI-H1048) | SMILES | IC50 [1] | IC50 (SHP77) | IC50 at 72 h [2] | IC50 at 72 h [3] |
| --- | --- | --- | --- | --- | --- | --- | --- | --- | --- |
| 16.9 µM | 11.7 µM | 26.8 µM | 12.4 µM | 20.2 µM | CN1CCC(C2CCN(Cc3cc4c(cc3-c3cc5ccc6c(c5cn3)OCO6)OCO4)CC2)CC1 | 31.8 µM | 15.7 µM | 12.2 µM | > 100 µM |
| 48.8 µM |  | 48.8 µM | 56.2 µM | 42.3 µM | CC1CCN1Cc1cc2c(cc1-c1cc3ccc4c(c3cn1)OCO4)OCO2 (stereo unspecified) | 46.3 µM | 42.6 µM | 27.7 µM | 33.8 µM |
| 97.8 µM | > 100 µM | > 100 µM | > 100 µM | > 100 µM | FC1CCN(Cc2cc3c(cc2-c2cc4ccc5c(c4cn2)OCO5)OCO3)CC1 | > 100 µM | > 100 µM | > 100 µM | > 100 µM |
| 18.7 µM | > 100 µM | 52.7 µM | 29.1 µM | 16.8 µM | c1c(CN2CC3CC3C2)c(-c2cc3ccc4c(c3cn2)OCO4)cc2c1OCO2 (stereo unspecified) | 38.9 µM | 21.3 µM | 23.7 µM | 26.8 µM |
| 13.8 µM | 15.5 µM | 31.8 µM | 12.4 µM | 12.9 µM | c1c(CN2CC3(CCCCC3)C2)c(-c2cc3ccc4c(c3cn2)OCO4)cc2c1OCO2 | 30.6 µM | 23.6 µM | 12.6 µM | 41.5 µM |
| 23.1 µM | 31.4 µM | 40.6 µM | 29.8 µM | 10 µM | CC1CCCN(Cc2cc3c(cc2-c2cc4ccc5c(c4cn2)OCO5)OCO3)C1 (stereo unspecified) | 27.4 µM | 17.9 µM | 14.3 µM | 43 µM |
| 16.9 µM | 33.1 µM | 25.4 µM | 15.9 µM | 13.4 µM | CCC1CCCCN1Cc1cc2c(cc1-c1cc3ccc4c(c3cn1)OCO4)OCO2 (stereo unspecified) | 17.1 µM | 20.8 µM | 20.7 µM | 22.6 µM |
| 14.4 µM | 39 µM | 49.6 µM | 38.6 µM | 16.7 µM | CC1CCCCN1Cc1cc2c(cc1-c1cc3ccc4c(c3cn1)OCO4)OCO2 (stereo unspecified) | 37.5 µM | 40.4 µM | 19.4 µM | 42.4 µM |
| 24.4 µM | > 100 µM | 50.2 µM | 58.1 µM | 30.5 µM | c1c(CN2CC3(CCC3)C2)c(-c2cc3ccc4c(c3cn2)OCO4)cc2c1OCO2 | 30.9 µM | 37.6 µM | 30.4 µM | > 100 µM |
| 11.1 µM | 12.8 µM | 30.9 µM | 44.2 µM | 21.5 µM | FC1(F)C2CCN(Cc3cc4c(cc3-c3cc5ccc6c(c5cn3)OCO6)OCO4)CC21 (stereo unspecified) | 27.4 µM | 15.8 µM | 10.3 µM | 77.6 µM |
| 49.2 µM | > 100 µM | > 100 µM | > 100 µM | > 100 µM | CC(=O)C1CCN(Cc2cc3c(cc2-c2cc4ccc5c(c4cn2)OCO5)OCO3)CC1 | 51.5 µM | 93.9 µM | > 100 µM | > 100 µM |
| 15.2 µM |  | 39.5 µM | 16.9 µM | 15.4 µM | c1c(CN2CCCCCC2)c(-c2cc3ccc4c(c3cn2)OCO4)cc2c1OCO2 | 24.3 µM | 18 µM | 12.3 µM | 14.4 µM |
| 27.5 µM | 24.4 µM | 62.2 µM | 47.7 µM | 38.2 µM | CC(O)C1CCN(Cc2cc3c(cc2-c2cc4ccc5c(c4cn2)OCO5)OCO3)CC1 (stereo unspecified) | 32.3 µM | 28.4 µM | 21.8 µM | 30.3 µM |
| 20.6 µM |  | 58.3 µM | 37.8 µM | 17.7 µM | FC1CCCN(Cc2cc3c(cc2-c2cc4ccc5c(c4cn2)OCO5)OCO3)CC1 (stereo unspecified) | 35.7 µM | 42.4 µM | 33.7 µM | > 100 µM |
| 38.2 µM | > 100 µM | > 100 µM | > 100 µM | > 100 µM | ClC1CCN(Cc2cc3c(cc2-c2cc4ccc5c(c4cn2)OCO5)OCO3)CC1 | 62.4 µM | > 100 µM | > 100 µM | > 100 µM |
| 38.9 µM | 20.2 µM | 72.7 µM | > 100 µM | 35.7 µM | CC1(O)CCN(Cc2cc3c(cc2-c2cc4ccc5c(c4cn2)OCO5)OCO3)C1 (stereo unspecified) | 46.4 µM | 32.4 µM | 39.7 µM | > 100 µM |

| IC50 (NCI-H446) | IC50 (NCI-H146) | IC50 (NCI-H209) | IC50 (NCI-H82) | IC50 (NCI-H1048) | SMILES | IC50 [1] | IC50 (SHP77) | IC50 at 72 h [2] | IC50 at 72 h [3] |
| --- | --- | --- | --- | --- | --- | --- | --- | --- | --- |
| 7.1 µM | 10.1 µM | > 100 µM | 2.96 µM | 2.68 µM | CC(C)(C)C1CCN(Cc2cc3c(cc2-c2cc4ccc5c(c4cn2)OCO5)OCO3)CC1 | 7.5 µM | 8.55 µM | > 100 µM | > 100 µM |
| 55.7 µM | > 100 µM | > 100 µM | > 100 µM | > 100 µM | CC1(C)CCN(Cc2cc3c(cc2-c2cc4ccc5c(c4cn2)OCO5)OCO3)CC1 | > 100 µM | > 100 µM | > 100 µM | > 100 µM |
| 65.8 µM | 70.3 µM | 82.6 µM | 56.9 µM | 29.8 µM | CC1(CO)CCN(Cc2cc3c(cc2-c2cc4ccc5c(c4cn2)OCO5)OCO3)CC1 | 40.5 µM | 22.6 µM | 21.2 µM | 37.9 µM |
| 60.7 µM | > 100 µM | 79.5 µM | 80.3 µM | 61.4 µM | OCC1CN(Cc2cc3c(cc2-c2cc4ccc5c(c4cn2)OCO5)OCO3)C1 | 42.5 µM | 63.4 µM | 23 µM | > 100 µM |
| 24.5 µM | > 100 µM | > 100 µM | > 100 µM | > 100 µM | CC(C)(C)C(=O)C1CCN(Cc2cc3c(cc2-c2cc4ccc5c(c4cn2)OCO5)OCO3)CC1 | > 100 µM | > 100 µM | > 100 µM | > 100 µM |
| 2.65 µM | < 6.25 µM | 6.92 µM | 1.7 µM | 2.21 µM | CC(C)C1CCN(Cc2cc3c(cc2-c2cc4ccc5c(c4cn2)OCO5)OCO3)CC1 | 14.5 µM | 8.17 µM | > 100 µM | 18.2 µM |
| 18.6 µM | 28.7 µM | 34.2 µM | 26.6 µM | 19.9 µM | c1c(CN2CC3(CCCC3)C2)c(-c2cc3ccc4c(c3cn2)OCO4)cc2c1OCO2 | 15.9 µM | 31.2 µM | 14.8 µM | > 100 µM |
| 65.6 µM | > 100 µM | > 100 µM | > 100 µM | 60.6 µM | COC(=O)C1CCN(Cc2cc3c(cc2-c2cc4ccc5c(c4cn2)OCO5)OCO3)CC1 | > 100 µM | > 100 µM | 77.5 µM |  |
| 38.5 µM |  | > 100 µM | > 100 µM | > 100 µM | CC1(F)CN(Cc2cc3c(cc2-c2cc4ccc5c(c4cn2)OCO5)OCO3)C1 | > 100 µM | > 100 µM | > 100 µM | > 100 µM |
| 49.8 µM |  | > 100 µM | > 100 µM | 74.1 µM | FC1CN(Cc2cc3c(cc2-c2cc4ccc5c(c4cn2)OCO5)OCO3)C1 | > 100 µM | 44.9 µM | 75.6 µM | 59 µM |
| 1.22 µM |  | 18.1 µM | 1.72 µM | 18.1 µM | CC(C)C1CCCCCN1Cc1cc2c(cc1-c1cc3ccc4c(c3cn1)OCO4)OCO2 (stereo unspecified) | 17.9 µM | 8.23 µM | 26.5 µM | 20.5 µM |
| 39.8 µM | 42.6 µM | 81.2 µM | 59.7 µM | 25.3 µM | c1c(CN2CCCC2)c(-c2cc3ccc4c(c3cn2)OCO4)cc2c1OCO2 | 34.3 µM | 28.8 µM | 29 µM | 33.6 µM |
| 10.4 µM |  | > 50 µM | 6.49 µM | 32.1 µM | CN1CCCN(Cc2cc3c(cc2-c2cc4ccc5c(c4cn2)OCO5)OCO3)CC1 | 19.8 µM | 22.3 µM | > 100 µM | > 100 µM |
| 78.6 µM | > 100 µM | 65 µM |  | > 100 µM | COc1ccc2cc3[n+](cc2c1OC)CCc1cc2c(cc1-3)OCO2 [BERBERINE] | > 100 µM | > 100 µM | > 100 µM | > 100 µM |
| 39.3 µM |  | 45 µM | 31.3 µM | 19.1 µM | FC1(F)CCCN(Cc2cc3c(cc2-c2cc4ccc5c(c4cn2)OCO5)OCO3)CC1 | 56.4 µM | 31.3 µM | 24.2 µM | 36.6 µM |
| 20.6 µM | > 100 µM | 46.5 µM |  |  | c1c(CN2CC3CCC(C2)O3)c(-c2cc3ccc4c(c3cn2)OCO4)cc2c1OCO2 | 31.3 µM | 30.8 µM | 57.3 µM | > 100 µM |
